According to patent US9212396B2, “Materials and methods useful for affecting tumor cell growth, migration and invasion” (The Ohio State University, priority 2009, dated 2015):

Assays:
[1] = test system: H460 xenograft; test: H460 xenograft in nude mice treated with TRAIL; type: in vivo; conditions: H460 shPTEN and shTIMP3 vs sh control, TRAIL 10 mg/kg/d ip, 35 days
Description: (§1) Animal studies were performed according to institutional guidelines. NCI-H460 cells were stable transfected by using shPTEN and TIMP3 plasmids (Santa Cruz); Calu-1 cells were stable transfected with shMET. After the selection in puromycin for 10 days 5 106 (H460) or 7106 (Calu-1) viable cells were injected s.c. into the right flanks of 6-wk-old male nude mice (Charles RiverBreeding Laboratories, Wilmington, Mass.). Treatment started five days (H460 xenograft) or ten days (Calu-1 xenograft) from tumor cell inoculation by daily ip injections of TRAIL/Apo2 (10 mg/kg/d) or vehicle (PBS) for two cycles of 5 days. Tumor size was assessed every five days by a digital caliper. The tumor volumes were determined by measuring the length (1) and the width (w) and calculating the volume (V=lw2/2). 35 days after injection, mice were sacrificed and tumors samples were analyzed by western blot for PTEN, TIMP3 and MET expression. Statistical significance between control and treated animals was evaluated by using Student's t test. Animal experiments were conducted after approval of the Institutional animal care and use committee, Ohio State University.

[2] = test system: HCC-derived cell lines; test: Proliferation (MTT) assay on HCC-derived cell lines exposed to TRAIL; type: cell-based, human; conditions: TRAIL 400 ng/ml 24 h
Description: Cells were plated in 96-well plates in triplicate and incubated at 37° C. in a 5% CO2 incubator. Super-Killer TRAIL (Alexis Biochemicals) was used for 24-48 h at 400 ng ml-1. Cell viability was examined with 3-(4,5-dimethylthiazol-2-yl)-2,5-dipheniltetrazolium bromide (MTT)-Cell Titer 96 AQueous One Solution Cell Proliferation Assay (Promega), according to the manufacturer's protocol. Metabolically active cells were detected by adding 20 μl of MTT to each well. After 1 h of incubation, the plates were analyzed in a Multilabel Counter (Bio-Rad Laboratories). Apoptosis was assessed using Annexin V-FITC apoptosis detection kits followed by flowcytometric analysis and caspase 3/7 activity. Cells were seeded at 1.8106 cells per 100 mm dish, grown overnight in 10% FBS/RPMI, washed with phosphate-buffered saline (PBS) and then treated for 24 h with 400 ng/ml TRAIL. Following incubation, cells were washed with cold PBS and removed from the plates by trypsinization. […] Statistical analysis was done using two sample t test, assuming equal variance, and P value was calculated based on two-tailed test. For detection of caspase 3/7 activity, cells were cultured in 96-well plates and treated with TRAIL 400 ng/ml and analyzed using Caspase-Glo 3/7 Assay kit (Promega) according to the manufacturer's instructions. Continuous variables are expressed as mean values±standard deviation (s.d.).

[3] = test system: Calu-1 xenograft; test: Calu-1 xenograft in nude mice treated with TRAIL; type: in vivo; conditions: Calu-1 shMET vs sh control, TRAIL 10 mg/kg/d ip
Description: as §1

[4] = test system: PTEN and TIMP3; test: Western blot of PTEN and TIMP3 in GTL16 cells; type: cell-based, human; conditions: GTL16 cells treated for 24 h with 4 μM
Description: Total proteins from NSCLC and HCC cells were extracted with radioimmuno-precipitation assay (RIPA) buffer ([…] NaCl, […] Tris-HCl, pH 7.5, 1% Triton, 0.1% SDS, 0.1% sodium deoxycholate and 1% Nonidet P40). Sample extract (50 μg) was resolved on 7.5-12% SDS-polyacrylamide gels (PAGE) using a mini-gel apparatus (Bio-Rad Laboratories) and transferred to Hybond-C extra nitrocellulose. Membranes were blocked for 1 h with 5% nonfat dry milk in Tris-buffered saline containing 0.05% Tween 20, incubated overnight with primary antibody, washed and incubated with secondary antibody, and visualized by chemiluminescence.
The following primary antibodies were used: anti-PTEN, anti-c-Jun, anti-p-c-Jun, anti-Fos, anti-p-JNK, anti-MMP3, anti-Mc1-1 (Santa Cruz), anti-TIMP3 (Millipore) anti-PI3K (BD Biosciences), anti-ERKs, anti-phospho ERKs, anti-AKT, anti-p-AKT, anti-GSK3b, anti-p-GSK3b (Ser9), anti-PAK1 anti-caspase-8,-3 and -9, anti-PARP, anti-cytochrome c (Cell signaling) and anti-MMP9, anti-FADD (Abcam), anti-1-actin antibody (Sigma). A secondary anti-rabbit or anti-mouse immunoglobulin G (IgG) antibody peroxidase conjugate (Chemicon) was used.

[5] = test system: miR-221 and miR-222; test: qRT-PCR of miR-221 and miR-222 in GTL16 cells; type: cell-based, human; conditions: GTL-16 cells, MET inhibition, compared with the untreated cells
Description: Real-time PCR was performed using a standard TaqMan PCR Kit protocol on an Applied Biosystems 7900HT Sequence Detection System (Applied Biosystems). The 10 μl PCR reaction included 0.67 μl RT product, 1 μl TaqMan Universal PCR Master Mix (Applied Biosystems), […]. The reactions were incubated in a 96-well plate at 95° C. for […], followed by 40 cycles of 95° C. for 15 s and 60° C. for 1 min. All reactions were run in triplicate. The threshold cycle (CT) is defined as the fractional cycle number at which the fluorescence passes the fixed threshold. The comparative CT method for relative quantization of gene expression (Applied Biosystems) was used to determine miRNA expression levels. The y axis represents the 2(-CT), or the relative expression of the different miRs. miRs expression was calculated relative to U44 and U48 rRNA and multiplied by 104. Experiments were carried out in triplicate for each data point, and data analysis was performed by using software (Bio-Rad).

TRAIL
tumor engraftment size / TRAIL resistance [1]: increases TRAIL resistance in vivo | cell proliferation / TRAIL-induced cell death (MTT) ([2]; HepG2, Sk-Hep1 and Huh 7, low miR-221-miR-222 expression): underwent TRAIL-induced cell death | cell proliferation / TRAIL-induced cell death (MTT) ([2]; PLC/PRF-5 and Snu-387, high miR-221-miR-222 expression): did not display sensitivity | tumor growth / sensitivity to TRAIL [3]: more sensitive to TRAIL inducing apoptosis

Cc1[nH]c(/C=C2\C(=O)Nc3ccc(S(=O)(=O)N(C)c4cccc(Cl)c4)cc32)c(C)c1C(=O)N1CCN(C)CC1 [SU11274]
miR-221 and miR-222 targets (PTEN, TIMP3) expression levels, western blot [4]: increased miR-221 and miR-222 targets expression levels | miR-221 and miR-222 downregulated (qRT-PCR) [5]: about 40%
